Results reported in patent US11702418B2, “SOS1 inhibitors” (priority 2019, dated 2023).

How the values were obtained:
[1] = test system: pERK in RL95-2 cells (SOS1 N233Y); assay: pERK inhibition in SOS1 N233Y mutant RL95-2 cells (Example E); assay type: cell-based; details: Homo sapiens, RL95-2 cell line, 1 hour with compound
Description: (§1) Three cell lines harboring SOS1 N233Y activation mutations, LXF289 (DSMZ, Leibniz Institute, Germany) RL95-2 (ATCC CRL-1671); and OCI AML-5 (DSMZ, Leibniz Institute, Germany) were used in the studies.

[2] = test system: pERK in Kasuma-1 (Kasumi) cells (NF-1 mutant); assay: pERK inhibition in NF-1 mutant Kasumi cells (Example F); assay type: cell-based; details: 1 h, read-out: IC50, pERK inhibition
Description: (§2) The formaldehyde was discarded from the plates and 150 μL of ice-cold methanol was added to permeabilize the cells for 10 minutes at −20° C. The methanol was discarded from each of the plates and any liquid remaining in the plate by tapping the plate against paper towels. […] The plates were incubated overnight at 4° C. on a shaker.
(§3) On Assay day 2, the primary antibody solution was removed. […] The secondary antibody solution as removed and each plate was washed with PBST 3× times. Any liquid remaining was discarded and the plate was imaged using the Licor Odyssey machine according to the manufacturer's instruction, using a set focus length at 3 mm and both 800 nm and 700 nm filters. The GAPDH normalized scan values for each well were divided by the average of vehicle wells to get the % of pERK inhibition. The IC50 values were then calculated with the Graph pad Prism software.

pERK in MKN1 cells = assay: cells; assay type: cell-based; details: Homo sapiens, MKN-1, pERK inhibition, In-Cell Western; MKN1 or H358 cells (Table 24 does not say which); 0.5-1 hour incubation; read-out: IC50
[3] = biological target: recombinant human SOS1 polypeptide (amino acids 560-1049) (Homo sapiens (Human), UniProt Q07889); assay: biochemical; assay type: binding; details: HTRF displacement, Cy5 labelled tracer, Morrison equation for competitive binding; read-out: Ki, Inhibition of Labeled Tracer Binding to SOS1
Chain of recombinant human SOS1 polypeptide (amino acids 560-1049) (Q07889 560-1049): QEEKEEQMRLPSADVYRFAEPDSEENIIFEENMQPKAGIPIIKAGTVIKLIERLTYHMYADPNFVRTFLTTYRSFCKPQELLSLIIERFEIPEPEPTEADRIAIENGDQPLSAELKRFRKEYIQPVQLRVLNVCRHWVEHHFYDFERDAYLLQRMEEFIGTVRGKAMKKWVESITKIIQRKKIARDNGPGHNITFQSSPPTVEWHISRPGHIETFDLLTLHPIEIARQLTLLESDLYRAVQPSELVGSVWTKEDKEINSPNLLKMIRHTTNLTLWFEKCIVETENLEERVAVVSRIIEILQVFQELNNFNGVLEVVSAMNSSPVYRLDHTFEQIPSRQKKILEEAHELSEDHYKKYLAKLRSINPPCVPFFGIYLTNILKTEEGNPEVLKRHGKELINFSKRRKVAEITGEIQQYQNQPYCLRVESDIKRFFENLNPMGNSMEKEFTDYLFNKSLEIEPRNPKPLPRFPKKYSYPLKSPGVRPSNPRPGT
Description: The ability of a compound of Formula (I) to bind to SOS1 was measured using a HTRF displacement assay. […] After a 1-hour incubation at room temperature, the HTRF signal was measured using Clairostar plate reader (BMG Labtech) according to the manufacturer's instructions. Excitation filter EX-TR was used, and emission 1 was detected at 650-610 nm and emission 2 detected at 620-610 nm. The HTRF ratio was calculated using the formula: [emission 1/emission 2]*10000.
Background signals were calculated from well with a 10 μM inhibitor, known to inhibit 100% at that concentration. The background subtracted signals were converted to % binding relative to DMSO controls. Data were analyzed using XLFIT software (IDBS) using a Morrison equation for competitive binding and Ki's were generated compound of Formula (I).

[4] = test system: pERK in OCI AML-5 cells (SOS1 N233Y); assay: pERK inhibition in SOS1 N233Y mutant OCI AML-5 cells (Example E); assay type: cell-based; details: Homo sapiens, OCI AML-5 cell line, 1 hour with compound
Description: as §1

[5] = test system: pERK in NCI-H1435 cells (NF-1 mutant); assay: pERK inhibition in NF-1 mutant NCI-H1435 cells (Example F); assay type: cell-based; details: NCI-H1435, 1 h, read-out: IC50, pERK inhibition
Description: as §2, §3

[6] = test system: pERK in LXF289 cells (SOS1 N233Y); assay: pERK inhibition in SOS1 N233Y mutant LXF289 cells (Example E); assay type: cell-based; details: Homo sapiens, LXF-289, LXF289 cell line, 1 hour with compound
Description: as §1

Compound `Cc1c([C@@H](C)Nc2nnc(C)c3ccc(N4CCn5nccc5C4)cc23)cccc1C(F)(F)F` [Example 6-10, (R)-7-(6,7-dihydropyrazolo[1,5-a]pyrazin-5(4H)-yl)-4-methyl-N-(1-(2-methyl-3-(trifluoromethyl)phenyl)ethyl)phthalazin-1-amine] has an IC50 [1] of 214 nM, an IC50 [2] of 902 nM and an IC50 (pERK in MKN1 cells) of 271 nM. For the same compound, the Ki [3] was less than 0.01 nM, the IC50 [4] was 333 nM and the IC50 [5] was 542 nM. It also gave an IC50 [6] of 294 nM.
`Cc1c([C@@H](C)Nc2nnc(C)c3ccc(N4CCN(C(=O)C5CC5)CC4)cc23)cccc1C(F)(F)F` [Example 6-11, (R)-cyclopropyl(4-(1-methyl-4-((1-(2-methyl-3-(trifluoromethyl)phenyl)ethyl)amino)phthalazin-6-yl)piperazin-1-yl)methanone] was tested, and the IC50 [1] was 20 nM, the IC50 [2] was 97 nM and the IC50 (pERK in MKN1 cells) was 31 nM. For the same compound, the Ki [3] was 9.1 nM, the IC50 [4] was 32 nM and the IC50 [5] was 65 nM. For the same compound, the IC50 [6] was 41 nM.
Work on `Cc1c([C@@H](C)Nc2nnc(C)c3ccc(O[C@H]4CCNC4)cc23)cccc1C(F)(F)F` [Example 7-3, 4-methyl-N-((R)-1-(2-methyl-3-(trifluoromethyl)phenyl)ethyl)-7-(((S)-pyrrolidin-3-yl)oxy)phthalazin-1-amine] yielded an IC50 (pERK in MKN1 cells) of 28 nM, a Ki [3] of 0.32 nM and an IC50 [5] of 55 nM.
Work on `Cc1c([C@@H](C)Nc2nnc(C)c3ccc(OC4CNC4)cc23)cccc1C(F)(F)F` [Example 7-4, (R)-7-(azetidin-3-yloxy)-4-methyl-N-(1-(2-methyl-3-(trifluoromethyl)phenyl)ethyl)phthalazin-1-amine] yielded an IC50 (pERK in MKN1 cells) of 14 nM, a Ki [3] of 0.47 nM and an IC50 [5] of 83 nM.
`Cc1c(C(F)F)cccc1[C@@H](C)Nc1nnc(C)c2ccc(N3CCNCC3)cc12` [Example 10-4, (R)-N-(1-(3-(difluoromethyl)-2-methylphenyl)ethyl)-4-methyl-7-(piperazin-1-yl)phthalazin-1-amine] showed an IC50 (pERK in MKN1 cells) of 14 nM, a Ki [3] of 0.08 nM and an IC50 [5] of 33 nM.
`Cc1c([C@@H](C)Nc2nnc(C)c3ccc(N4CCOC[C@@H]4C)cc23)cccc1C(F)(F)F` [Example 10-6, 4-methyl-N-((R)-1-(2-methyl-3-(trifluoromethyl)phenyl)ethyl)-7-((S)-3-methylmorpholino)phthalazin-1-amine] showed an IC50 (pERK in MKN1 cells) of 21 nM, a Ki [3] of 0.64 nM and an IC50 [5] of 75 nM.
For `CNC1CCN(c2ccc3c(C)nnc(N[C@H](C)c4cccc(C(F)(F)F)c4C)c3c2)CC1` [Example 10-7, (R)-4-methyl-N-(1-(2-methyl-3-(trifluoromethyl)phenyl)ethyl)-7-(4-(methylamino)piperidin-1-yl)phthalazin-1-amine], the IC50 (pERK in MKN1 cells) was 22 nM, the Ki [3] was 0.07 nM and the IC50 [5] was 87 nM.
`Cc1c([C@@H](C)Nc2nnc(C)c3ccc(N4CCC(N(C)C)CC4)cc23)cccc1C(F)(F)F` [Example 10-8, (R)-7-(4-(dimethylamino)piperidin-1-yl)-4-methyl-N-(1-(2-methyl-3-(trifluoromethyl)phenyl)ethyl)phthalazin-1-amine] gave an IC50 (pERK in MKN1 cells) of 34 nM, a Ki [3] of 0.09 nM and an IC50 [5] of 94 nM.
Compound `Cc1c([C@@H](C)Nc2nnc(C)c3ccc(N4CCC(C)(N)CC4)cc23)cccc1C(F)(F)F` [Example 10-9, (R)-7-(4-amino-4-methylpiperidin-1-yl)-4-methyl-N-(1-(2-methyl-3-(trifluoromethyl)phenyl)ethyl)phthalazin-1-amine] has an IC50 (pERK in MKN1 cells) of 54 nM, a Ki [3] of 0.05 nM and an IC50 [5] of 152 nM.
`Cc1c([C@@H](C)Nc2nnc(C)c3ccc(N4CCN(c5cnn(C)c5)CC4)cc23)cccc1C(F)(F)F` [Example 10-10, (R)-4-methyl-7-(4-(1-methyl-1H-pyrazol-4-yl)piperazin-1-yl)-N-(1-(2-methyl-3-(trifluoromethyl)phenyl)ethyl)phthalazin-1-amine] gave an IC50 (pERK in MKN1 cells) of 17 nM, a Ki [3] of 0.01 nM and an IC50 [5] of 15 nM.
`Cc1nc(C)n2c1CN(c1ccc3c(C)nnc(N[C@H](C)c4cccc(C(F)(F)F)c4C)c3c1)CC2` [Example 10-11, (R)-7-(1,3-dimethyl-5,6-dihydroimidazo[1,5-a]pyrazin-7(8H)-yl)-4-methyl-N-(1-(2-methyl-3-(trifluoromethyl)phenyl)ethyl)phthalazin-1-amine] was tested, and the IC50 (pERK in MKN1 cells) was 22 nM, the Ki [3] was 0.01 nM and the IC50 [5] was 63 nM.
Compound `Cc1c([C@@H](C)Nc2nnc(C)c3ccc(N4CCN(C(=O)C5COC5)CC4)cc23)cccc1C(F)(F)F` [Example 11-1, (R)-(4-(1-methyl-4-((1-(2-methyl-3-(trifluoromethyl)phenyl)ethyl)amino)phthalazin-6-yl)piperazin-1-yl)(oxetan-3-yl)methanone] has an IC50 (pERK in MKN1 cells) of 10 nM, a Ki [3] of 0.01 nM and an IC50 [5] of 6 nM.
`Cc1c([C@@H](C)Nc2nnc(C)c3ccc(N4CCN(C(=O)C5CCOCC5)CC4)cc23)cccc1C(F)(F)F` [Example 11-2, (R)-(4-(1-methyl-4-((1-(2-methyl-3-(trifluoromethyl)phenyl)ethyl)amino)phthalazin-6-yl)piperazin-1-yl)(tetrahydro-2H-pyran-4-yl)methanone] was tested, and the IC50 (pERK in MKN1 cells) was 27 nM, the Ki [3] was less than 0.01 nM and the IC50 [5] was 17 nM.
Work on `Cc1c([C@@H](C)Nc2nnc(C)c3ccc(N4CCN(C(=O)C5(C(F)(F)F)CC5)CC4)cc23)cccc1C(F)(F)F` [Example 11-3, (R)-(4-(1-methyl-4-((1-(2-methyl-3-(trifluoromethyl)phenyl)ethyl)amino)phthalazin-6-yl)piperazin-1-yl)(1-(trifluoromethyl)cyclopropyl)methanone] yielded an IC50 (pERK in MKN1 cells) of 48 nM, a Ki [3] of less than 0.01 nM and an IC50 [5] of 62 nM.
`Cc1c([C@@H](C)Nc2nnc(C)c3ccc(N4CCN(C(=O)[C@@H]5CCOC5)CC4)cc23)cccc1C(F)(F)F` [Example 11-4, (4-(1-methyl-4-(((R)-1-(2-methyl-3-(trifluoromethyl)phenyl)ethyl)amino)phthalazin-6-yl)piperazin-1-yl)((R)-tetrahydrofuran-3-yl)methanone] gave an IC50 (pERK in MKN1 cells) of 25 nM, a Ki [3] of 0.01 nM and an IC50 [5] of 19 nM.
